According to ChEMBL document CHEMBL4765282, “Design, synthesis and biological evaluation of 1H-pyrazolo [3,4-d]pyrimidine derivatives as PAK1 inhibitors that trigger apoptosis, ER stress and anti-migration effect in MDA-MB-231 cells” (Eur J Med Chem, 2020):
Active and inactive are the calls of the source. No cut-off for these calls is given here.

Tests used:
Homo sapiens = species on record: Homo sapiens; assay: Selectivity ratio of IC50 for inhibition of PAK2 (unknown origin) to IC50 for inhibition of PAK1 (unknown origin)
MDA-MB-231 [1] = assay: Down regulation of PAK1 expression in human MDA-MB-231 cells at 20 uM measured after 24 hrs by immunofluorescence analysis; assay type: functional, cell-based
[2] = target: Serine/threonine-protein kinase PAK 1 (Homo sapiens, UniProt Q13153); assay: Inhibition of PAK1 in human MDA-MB-231 cells assessed as reduction in c-Raf phosphorylation at Ser259 residues at 10 to 40 uM measured after 24 hrs by Western blot analysis; assay type: cell-based; conditions: dose 10-40 µM
MDA-MB-231 [3] = assay: Induction of apoptosis in human MDA-MB-231 cells assessed as increase in DNA fragmentation at 10 to 40 uM measured after 24 hrs by Hoechst 33258 staining based assay; assay type: functional, cell-based; conditions: dose 10-40 µM
MDA-MB-231 [4] = assay: Induction of apoptosis in human MDA-MB-231 cells assessed as increase in late apoptosis measured after 24 hrs by Annexin V-FITC/propidium iodide staining based flow cytometry; assay type: functional, cell-based
MDA-MB-231 [5] = assay: Induction of apoptosis in human MDA-MB-231 cells assessed as increase in early apoptosis measured after 24 hrs by Annexin V-FITC/propidium iodide staining based flow cytometry; assay type: functional, cell-based
MDA-MB-231 [6] = assay: Induction of apoptosis in human MDA-MB-231 cells assessed as early apoptotic cells at 10 uM measured after 24 hrs by Annexin V-FITC/propidium iodide staining based flow cytometry (reference value: 0.81%); assay type: functional
MDA-MB-231 [7] = assay: Induction of apoptosis in human MDA-MB-231 cells assessed as viable cells at 20 uM measured after 24 hrs by Annexin V-FITC/propidium iodide staining based flow cytometry (reference value: 98.46%); assay type: functional; conditions: read-out: Activity
MDA-MB-231 [8] = assay: Induction of apoptosis in human MDA-MB-231 cells assessed as late apoptotic cells at 20 uM measured after 24 hrs by Annexin V-FITC/propidium iodide staining based flow cytometry (reference value: 0.57%); assay type: functional
MDA-MB-231 [9] = assay: Induction of apoptosis in human MDA-MB-231 cells assessed as viable cells at 40 uM measured after 24 hrs by Annexin V-FITC/propidium iodide staining based flow cytometry (reference value: 98.46%); assay type: functional; conditions: read-out: Activity
MDA-MB-231 [10] = assay: Induction of apoptosis in human MDA-MB-231 cells assessed as early apoptotic cells at 40 uM measured after 24 hrs by Annexin V-FITC/propidium iodide staining based flow cytometry (reference value: 0.81%); assay type: functional
MDA-MB-231 [11] = assay: Induction of apoptosis in human MDA-MB-231 cells assessed as late apoptotic cells at 40 uM measured after 24 hrs by Annexin V-FITC/propidium iodide staining based flow cytometry (reference value: 0.57%); assay type: functional
MDA-MB-231 [12] = assay: Induction of apoptosis in human MDA-MB-231 cells assessed as necrotic cells at 40 uM measured after 24 hrs by Annexin V-FITC/propidium iodide staining based flow cytometry (reference value: 0.16%); assay type: functional
MDA-MB-231 [13] = assay: Induction of apoptosis in human MDA-MB-231 cells assessed as upregulation of Bax expression at 10 to 40 uM measured after 24 hrs by Western blot analysis; assay type: functional, cell-based; conditions: dose 10-40 µM
MDA-MB-231 [14] = assay: Induction of apoptosis in human MDA-MB-231 cells assessed as down regulation of Bcl-2 expression at 10 to 40 uM measured after 24 hrs by Western blot analysis; assay type: functional, cell-based; conditions: dose 10-40 µM
MDA-MB-231 [15] = assay: Induction of apoptosis in human MDA-MB-231 cells assessed as increase in caspase-8 cleavage at 10 to 40 uM measured after 24 hrs by Western blot analysis; assay type: functional, cell-based; conditions: dose 10-40 µM
MDA-MB-231 [16] = assay: Induction of apoptosis in human MDA-MB-231 cells assessed as increase in PARP cleavage at 10 to 40 uM measured after 24 hrs by Western blot analysis; assay type: functional, cell-based; conditions: dose 10-40 µM
[17] = Upregulation of ATF4 gene expression in human MDA-MB-231 cells by Trizol reagent based RNA sequencing analysis relative to control; assay type: functional
[18] = Effect on DDIT4 gene expression in human MDA-MB-231 cells by Trizol reagent based RNA sequencing analysis relative to control; assay type: functional
[19] = Effect on PPP1R15A gene expression in human MDA-MB-231 cells by Trizol reagent based RNA sequencing analysis relative to control; assay type: functional
[20] = Effect on HYOU1 gene expression in human MDA-MB-231 cells by Trizol reagent based RNA sequencing analysis relative to control; assay type: functional
[21] = Effect on SHMT2 gene expression in human MDA-MB-231 cells by Trizol reagent based RNA sequencing analysis relative to control; assay type: functional
[22] = Effect on DDIT3 gene expression in human MDA-MB-231 cells by Trizol reagent based RNA sequencing analysis relative to control; assay type: functional
[23] = Effect on EGR1 gene expression in human MDA-MB-231 cells by Trizol reagent based RNA sequencing analysis relative to control; assay type: functional
[24] = Effect on JUN gene expression in human MDA-MB-231 cells by Trizol reagent based RNA sequencing analysis relative to control; assay type: functional
[25] = Effect on CSTA gene expression in human MDA-MB-231 cells by Trizol reagent based RNA sequencing analysis relative to control; assay type: functional
[26] = Effect on ALPP gene expression in human MDA-MB-231 cells by Trizol reagent based RNA sequencing analysis relative to control; assay type: functional
[27] = Effect on MMP3 gene expression in human MDA-MB-231 cells by Trizol reagent based RNA sequencing analysis relative to control; assay type: functional
[28] = Effect on CTGF gene expression in human MDA-MB-231 cells by Trizol reagent based RNA sequencing analysis relative to control; assay type: functional
[29] = Effect on GRID1 gene expression in human MDA-MB-231 cells by Trizol reagent based RNA sequencing analysis relative to control; assay type: functional
MDA-MB-231 [30] = assay: Upregulation of ATF4 expression in human MDA-MB-231 cells at 10 to 40 uM measured after 24 hrs by Western blot analysis; assay type: functional, cell-based; conditions: dose 10-40 µM
MDA-MB-231 [31] = assay: Upregulation of PERK expression in human MDA-MB-231 cells at 10 to 40 uM measured after 24 hrs by Western blot analysis; assay type: functional, cell-based; conditions: dose 10-40 µM
MDA-MB-231 [32] = assay: Upregulation of PERK expression in human MDA-MB-231 cells transfected with si-PAK1 at 10 uM measured after 24 hrs by Western blot analysis; assay type: functional, cell-based
MDA-MB-231 [33] = assay: Inhibition of PI3K/AKT/mTOR signaling in human MDA-MB-231 cells assessed as reduction in mTOR phosphorylation at 10 to 40 uM after 24 hrs by Western blot analysis; assay type: cell-based; conditions: dose 10-40 µM
[34] = target: Mitogen-activated protein kinase 8/9 (Homo sapiens) (UniProt P45983+P45984); assay: Inhibition of JNK1/2 in human MDA-MB-231 cells assessed as reduction in SAPK/JNK phosphorylation at […] residues at 10 to 40 uM after 24 hrs by Western blot analysis; assay type: cell-based; conditions: dose 10-40 µM
MDA-MB-231 [35] = assay: Up regulation of FOXO3a expression in human MDA-MB-231 cells at 10 to 40 uM measured after 24 hrs by Western blot analysis; assay type: functional, cell-based; conditions: dose 10-40 µM
MDA-MB-231 [36] = assay: Up regulation of E-cadherin expression in human MDA-MB-231 cells at 10 to 40 uM measured after 24 hrs by Western blot analysis; assay type: functional, cell-based; conditions: dose 10-40 µM

Chain of Mitogen-activated protein kinase 8/9 (Homo sapiens) (P45983 whole entry, looked up): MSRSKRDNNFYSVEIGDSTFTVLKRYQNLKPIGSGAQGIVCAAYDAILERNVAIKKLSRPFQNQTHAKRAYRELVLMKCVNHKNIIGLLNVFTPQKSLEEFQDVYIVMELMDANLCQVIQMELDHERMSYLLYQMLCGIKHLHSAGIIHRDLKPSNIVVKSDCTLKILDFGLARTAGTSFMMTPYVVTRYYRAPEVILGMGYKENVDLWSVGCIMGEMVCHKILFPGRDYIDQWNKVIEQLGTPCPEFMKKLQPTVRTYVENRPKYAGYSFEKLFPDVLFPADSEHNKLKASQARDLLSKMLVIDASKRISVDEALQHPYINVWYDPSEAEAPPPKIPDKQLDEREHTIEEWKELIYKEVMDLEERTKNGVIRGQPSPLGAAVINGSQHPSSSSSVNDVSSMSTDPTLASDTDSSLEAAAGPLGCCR
Chain of Mitogen-activated protein kinase 8/9 (Homo sapiens) (P45984 whole entry, looked up): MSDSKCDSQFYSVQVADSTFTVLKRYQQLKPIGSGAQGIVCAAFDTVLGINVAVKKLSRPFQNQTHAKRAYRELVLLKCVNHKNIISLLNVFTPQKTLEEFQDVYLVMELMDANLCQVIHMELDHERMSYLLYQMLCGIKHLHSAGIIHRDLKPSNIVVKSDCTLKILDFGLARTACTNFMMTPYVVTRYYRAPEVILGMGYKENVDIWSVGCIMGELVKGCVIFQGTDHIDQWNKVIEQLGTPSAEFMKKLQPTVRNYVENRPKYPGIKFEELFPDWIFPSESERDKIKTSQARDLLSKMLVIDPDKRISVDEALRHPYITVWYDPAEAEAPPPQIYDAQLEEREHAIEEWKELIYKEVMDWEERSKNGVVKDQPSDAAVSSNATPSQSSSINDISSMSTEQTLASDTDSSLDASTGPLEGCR
Chain of Serine/threonine-protein kinase PAK 1 (Q13153 whole entry, the tested form may be a part): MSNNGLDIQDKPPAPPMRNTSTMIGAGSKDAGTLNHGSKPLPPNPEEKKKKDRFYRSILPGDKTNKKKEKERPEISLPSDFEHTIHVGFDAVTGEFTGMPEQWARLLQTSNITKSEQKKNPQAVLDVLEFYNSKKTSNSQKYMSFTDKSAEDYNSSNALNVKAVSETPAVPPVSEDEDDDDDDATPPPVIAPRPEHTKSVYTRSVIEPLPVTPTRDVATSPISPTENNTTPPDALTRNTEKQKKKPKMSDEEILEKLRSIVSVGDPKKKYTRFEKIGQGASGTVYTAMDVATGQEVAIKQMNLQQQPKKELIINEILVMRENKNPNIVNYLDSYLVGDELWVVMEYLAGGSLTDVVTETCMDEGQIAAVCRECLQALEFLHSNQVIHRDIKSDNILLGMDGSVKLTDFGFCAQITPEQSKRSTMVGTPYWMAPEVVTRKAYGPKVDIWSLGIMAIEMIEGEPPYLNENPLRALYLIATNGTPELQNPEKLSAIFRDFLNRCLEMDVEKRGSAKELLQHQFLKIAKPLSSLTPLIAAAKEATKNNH

O=C(Nc1cc(C(F)(F)F)cc(C(F)(F)F)c1)NC1CCN(c2ncnc3[nH]ncc23)CC1
Ratio IC50 (Homo sapiens): 5 | Activity (MDA-MB-231 [1]): Active | inhibition [2]: Active | Activity (MDA-MB-231 [3]): Active | Activity (MDA-MB-231 [4]): Dose-dependent effect | Activity (MDA-MB-231 [5]): Dose-dependent effect | Activity (MDA-MB-231 [6]): 7.16% | viability at 20 µM (MDA-MB-231 [7]): 77.3% | Activity (MDA-MB-231 [8]): 6.91% | viability at 40 µM (MDA-MB-231 [9]): 72.2% | Activity (MDA-MB-231 [10]): 14.79% | Activity (MDA-MB-231 [11]): 12.06% | Activity (MDA-MB-231 [12]): 0.91% | Activity (MDA-MB-231 [13]): Active | Activity (MDA-MB-231 [14]): Active | Activity (MDA-MB-231 [15]): Active | Activity (MDA-MB-231 [16]): Active | fold change (FC) [17]: >2 | fold change (FC) [18]: >2 | fold change (FC) [19]: >2 | fold change (FC) [20]: >2 | fold change (FC) [21]: >2 | fold change (FC) [22]: >2 | fold change (FC) [23]: >2 | fold change (FC) [24]: >2 | fold change (FC) [25]: >2 | fold change (FC) [26]: >2 | fold change (FC) [27]: >2 | fold change (FC) [28]: >2 | fold change (FC) [29]: >2 | Activity (MDA-MB-231 [30]): Active | Activity (MDA-MB-231 [31]): Active | Activity (MDA-MB-231 [32]): inactive | inhibition (MDA-MB-231 [33]): Active | inhibition [34]: Active | Activity (MDA-MB-231 [35]): Active | Activity (MDA-MB-231 [36]): Active
